# Laboratory results taken from US10174030B2 (priority 2014, dated 2019).
# Target: LSD1 (Homo sapiens (Human), UniProt O60341)
# Test: biochemical
# Protocol: After stopping the reactions plates were incubated for 30 minutes and read on a PHERAstar FS plate reader (BMG Labtech).
smiles,measurement,value
"COc1ccc(CC2(CN[C@@H]3C[C@H]3c3ccccc3)CCN(CC3(C(=O)O)CC3)CC2)cn1 [Example 69, 1-{[4-[(6-methoxypyridin-3-yl)methyl]-4-({[(1R,2S)-2-phenylcyclopropyl]amino}methyl)piperidin-1-yl]methyl}cyclopropanecarboxylic acid]",IC50,< 0.1 µM
